Results as given in ChEMBL document CHEMBL5126552, “Discovery of small-molecule compounds and natural products against Parkinson's disease: Pathological mechanism and structural modification” (Eur J Med Chem, 2022).
Values belong to the compound of their own block, whether it stands above or below them.

Legend:
animal or person = conditions: Mus musculus, po, 6 h, read-out: INH
[1] = Agonist activity at D3 receptor in mouse MN9D cells assessed as increase in GTPgammaS binding
[2] = Agonist activity at D2 receptor in mouse MN9D cells assessed as increase in GTPgammaS binding
[3] = Displacement of [3H]-SCH23390 from D1 receptor in rat striatum incubated for 30 mins by competitive radioligand binding based scintillation counter analysis
[4] = Displacement of [3H]-spiperone from D2 receptor in rat striatum incubated for 90 mins by competitive radioligand binding based scintillation counter analysis
in vivo [5] = conditions: rat, po, 3 mg/kg
[6] = Half life in rat at 3 mg/kg,po; conditions: in vivo
D(2) dopamine receptor [7] = target: T1, D(2) dopamine receptor (Homo sapiens, UniProt P14416)
Description: Agonist activity at dopamine D2 receptor (unknown origin)

in vivo [8] = conditions: rat, po, 15 mg/kg
Description: Oral bioavailability in 6-OHDA-unilateral lesioned rat model of Parkinson's disease at 15 mg/kg

[9] = Agonist activity at rat mGlu4 receptor assessed as increase in calcium flux
[10] = Drug concentration in 6-OHDA-unilateral lesioned mouse model of Parkinson's disease assessed as brain concentration at 50 mg/kg,ip measured after 4 hrs
[11] = Plasma concentration in 6-OHDA-unilateral lesioned mouse model of Parkinson's disease at 50 mg/kg,ip measured after 4 hrs
[12] = Inhibition of Monoamine oxidase in MPTP-induced C57BL/6 mouse assessed as inhibition constant
[13] = target: T2, Amine oxidase [flavin-containing] B (Homo sapiens, UniProt P27338); assay: Inhibition of human MAO-B
T2 sequence (P27338 whole entry): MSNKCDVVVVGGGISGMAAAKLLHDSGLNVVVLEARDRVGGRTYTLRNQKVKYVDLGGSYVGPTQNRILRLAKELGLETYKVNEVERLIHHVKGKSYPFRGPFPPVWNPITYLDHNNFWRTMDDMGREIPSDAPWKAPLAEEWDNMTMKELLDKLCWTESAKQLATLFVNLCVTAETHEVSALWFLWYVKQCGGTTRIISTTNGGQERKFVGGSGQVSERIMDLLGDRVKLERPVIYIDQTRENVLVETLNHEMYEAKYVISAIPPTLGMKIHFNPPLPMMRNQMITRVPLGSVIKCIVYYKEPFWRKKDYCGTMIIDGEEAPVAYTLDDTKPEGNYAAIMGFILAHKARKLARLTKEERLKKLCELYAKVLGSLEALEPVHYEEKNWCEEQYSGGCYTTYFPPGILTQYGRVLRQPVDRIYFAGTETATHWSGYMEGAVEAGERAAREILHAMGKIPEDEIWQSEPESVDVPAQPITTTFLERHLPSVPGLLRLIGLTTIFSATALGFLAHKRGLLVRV

Adenosine receptor A1 [14] = target: T3, Adenosine receptor A1 (Homo sapiens, UniProt P30542)
T3 sequence (P30542 whole entry): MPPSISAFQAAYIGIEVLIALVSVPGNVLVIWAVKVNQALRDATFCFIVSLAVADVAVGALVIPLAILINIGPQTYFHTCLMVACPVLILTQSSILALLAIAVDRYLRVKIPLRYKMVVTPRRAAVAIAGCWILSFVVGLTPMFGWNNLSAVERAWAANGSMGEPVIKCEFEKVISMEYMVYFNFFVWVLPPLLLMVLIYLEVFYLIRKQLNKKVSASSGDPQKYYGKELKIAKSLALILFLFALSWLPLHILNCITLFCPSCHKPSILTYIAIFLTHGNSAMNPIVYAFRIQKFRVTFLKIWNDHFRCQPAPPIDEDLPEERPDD
Description: Antagonist activity at human adenosine A1 receptor

Adenosine receptor A2a [15] = target: Adenosine receptor A2a (Homo sapiens, UniProt P29274); assay: Antagonist activity at human adenosine A2A receptor
[16] = Inhibition of c-Jun phosphorylation in streptozotocin stimulated rat INS1 cells using TMB as substrate incubated for 16 hrs by microplate reader assay; conditions: INS1, 16 h
D(3) dopamine receptor [17] = target: T4, D(3) dopamine receptor (Homo sapiens, UniProt P35462); assay: Agonist activity at dopamine D3 receptor (unknown origin)
[18] = Metabolic stability at human liver microsomes assessed as intrinsic clearance
[19] = Metabolic stability at human liver microsomes assessed as half life
Adenosine receptor A1 [20] = target: T5, Adenosine receptor A1 (Rattus norvegicus, UniProt P25099); assay: Antagonist activity at rat adenosine A1 receptor
T5 sequence (P25099 whole entry): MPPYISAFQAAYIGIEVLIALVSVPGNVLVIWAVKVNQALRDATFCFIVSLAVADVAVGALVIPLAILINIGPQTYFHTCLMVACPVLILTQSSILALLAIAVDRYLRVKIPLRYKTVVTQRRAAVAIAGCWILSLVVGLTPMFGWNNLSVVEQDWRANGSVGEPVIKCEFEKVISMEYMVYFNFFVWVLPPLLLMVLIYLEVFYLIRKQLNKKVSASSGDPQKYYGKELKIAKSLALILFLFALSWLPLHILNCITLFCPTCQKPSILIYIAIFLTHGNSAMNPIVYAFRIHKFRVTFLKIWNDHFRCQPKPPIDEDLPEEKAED

Adenosine receptor A2a [21] = target: Adenosine receptor A2a (Rattus norvegicus, UniProt P30543); assay: Antagonist activity at rat adenosine A2A receptor
D(3) dopamine receptor [22] = target: T4, D(3) dopamine receptor; assay: Agonist activity at dopamine D3 receptor (unknown origin) assessed as increase in GTPgammaS binding
D(2) dopamine receptor [23] = target: T1, D(2) dopamine receptor; remark: listed apart in the source

T1 sequence (P14416 whole entry): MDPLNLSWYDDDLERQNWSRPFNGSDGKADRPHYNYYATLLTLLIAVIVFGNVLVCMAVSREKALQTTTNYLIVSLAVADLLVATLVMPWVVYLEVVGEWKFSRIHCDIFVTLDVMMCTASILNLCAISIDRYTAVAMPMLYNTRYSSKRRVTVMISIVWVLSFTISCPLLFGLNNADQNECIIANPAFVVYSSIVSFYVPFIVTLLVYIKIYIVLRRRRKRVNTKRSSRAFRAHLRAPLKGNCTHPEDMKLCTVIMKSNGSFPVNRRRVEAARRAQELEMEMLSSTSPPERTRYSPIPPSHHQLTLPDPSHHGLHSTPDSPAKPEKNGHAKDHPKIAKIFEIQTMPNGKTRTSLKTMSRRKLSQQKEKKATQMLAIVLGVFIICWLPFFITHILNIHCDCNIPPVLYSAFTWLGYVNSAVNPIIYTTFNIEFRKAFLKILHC
T4 sequence (P35462 whole entry): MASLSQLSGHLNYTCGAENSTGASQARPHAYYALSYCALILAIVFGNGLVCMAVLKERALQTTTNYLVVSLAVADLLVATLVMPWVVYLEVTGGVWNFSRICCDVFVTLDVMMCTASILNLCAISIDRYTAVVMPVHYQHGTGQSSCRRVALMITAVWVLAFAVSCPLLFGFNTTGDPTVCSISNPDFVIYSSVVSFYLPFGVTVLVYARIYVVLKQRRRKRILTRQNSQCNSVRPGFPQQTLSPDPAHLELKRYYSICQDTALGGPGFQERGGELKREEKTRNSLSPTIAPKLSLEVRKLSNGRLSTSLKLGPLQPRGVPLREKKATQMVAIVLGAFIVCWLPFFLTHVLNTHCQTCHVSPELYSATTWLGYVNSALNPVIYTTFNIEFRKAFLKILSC
Adenosine receptor A2a (Rattus norvegicus, UniProt P30543), sequence (P30543 whole entry): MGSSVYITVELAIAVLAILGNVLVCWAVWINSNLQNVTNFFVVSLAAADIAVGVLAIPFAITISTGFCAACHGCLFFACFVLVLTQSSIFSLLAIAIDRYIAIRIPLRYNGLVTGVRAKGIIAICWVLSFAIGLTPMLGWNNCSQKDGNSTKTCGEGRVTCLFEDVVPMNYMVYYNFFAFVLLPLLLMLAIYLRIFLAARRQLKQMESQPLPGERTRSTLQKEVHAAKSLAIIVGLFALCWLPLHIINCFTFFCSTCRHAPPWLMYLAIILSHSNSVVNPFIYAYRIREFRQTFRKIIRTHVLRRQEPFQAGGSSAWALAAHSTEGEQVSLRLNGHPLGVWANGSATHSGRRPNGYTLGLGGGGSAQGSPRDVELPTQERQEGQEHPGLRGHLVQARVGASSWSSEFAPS
Adenosine receptor A2a (Homo sapiens, UniProt P29274), sequence (P29274 whole entry): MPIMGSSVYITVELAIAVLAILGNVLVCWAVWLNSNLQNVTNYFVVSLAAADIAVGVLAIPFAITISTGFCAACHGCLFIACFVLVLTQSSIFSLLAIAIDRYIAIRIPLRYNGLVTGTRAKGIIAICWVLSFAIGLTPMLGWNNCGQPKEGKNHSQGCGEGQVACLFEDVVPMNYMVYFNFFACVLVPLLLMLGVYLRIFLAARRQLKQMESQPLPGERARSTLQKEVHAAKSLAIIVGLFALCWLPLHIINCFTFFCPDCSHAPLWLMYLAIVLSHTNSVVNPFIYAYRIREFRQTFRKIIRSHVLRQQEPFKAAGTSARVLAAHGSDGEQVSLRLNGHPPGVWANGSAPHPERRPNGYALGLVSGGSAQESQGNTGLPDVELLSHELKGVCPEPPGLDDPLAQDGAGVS

SMILES: O=C(CCN1CCN(c2cccc(C(F)(F)F)c2)CC1)c1cc(O)c(O)c([N+](=O)[O-])c1
inhibition in vivo at 30 mg/kg (animal or person): 74%

EC50 [1]: 0.26 nM
EC50 [2]: 114 nM
SMILES: CCCN(CCN1CCN(c2ccc3[nH]ccc3c2Cl)CC1)[C@H]1CCc2nc(N)sc2C1

Ki [3]: 2.15 nM
Ki [4]: 1.09 nM
SMILES: C#CCN1CCC[C@H]2c3[nH]c4ccccc4c3CC[C@@H]21

Ki [3]: 19.8 nM
Ki [4]: 1.31 nM
SMILES: CCCN1CCC[C@H]2c3[nH]c4ccccc4c3CC[C@@H]21

bioavailability (in vivo [5]): 7%
half-life [6]: 30 min
SMILES: Cn1nc(C(F)(F)F)c(CN2CCN(c3nc(N)n4nc(-c5ccco5)nc4n3)CC2)c1Cl

EC50 (D(2) dopamine receptor [7]): 51.6 nM
SMILES: CCCN(CCN1CCN(c2ccc(-c3ccccn3)nc2)CC1)[C@H]1CCc2nc(N)sc2C1

bioavailability (in vivo [8]): 95%
EC50 [9]: 46 nM
SMILES: Fc1ccc(Nc2n[nH]c3cccnc23)cc1Cl

concentration at 4 h [10]: 100 µM
concentration at 4 h [11]: 100 µM
SMILES: Cc1cc(Oc2nccc3occc23)ccc1-c1c(C)c(=O)[nH]c(=O)n1C

Ki [12]: 6000 nM
SMILES: CC1=C(C)C(=O)c2cc(C)ccc2C1=O

IC50 [13]: 12400 nM
SMILES: CNCc1cc(=O)oc2c(O)c(O)ccc12

SMILES: Nc1nc(N2CCN3CCC[C@@H]3C2)cc2nc(-c3ccco3)nn12
Ki (Adenosine receptor A1 [14]): 1100 nM
Ki (Adenosine receptor A2a [15]): 63 nM

Ki (Adenosine receptor A1 [14]): > 540 nM
SMILES: Cc1cccc(Nc2nc(NCCCO)nc3c2cnn3-c2ccccc2)c1

IC50 [13]: 5.9 nM
SMILES: COc1ccc(/C(C)=N/NC(=O)c2cc(-c3ccccc3)on2)cc1OC

SMILES: Cc1ccc(-c2ncn(-c3ccc(Nc4nccc(-c5cccc(N6CCOCC6)c5)n4)cc3)n2)cn1
IC50 [16]: 216 nM

EC50 (D(2) dopamine receptor [7]): 9.98 nM
EC50 (D(3) dopamine receptor [17]): 2.91 nM
SMILES: CCCN(CCN1CCN(c2ccccc2)CC1)[C@H]1CCc2ccc(O)cc2C1

CLint scaled [18]: 34 mL/min/kg
half-life [19]: 53 min
SMILES: CO[C@@H]1CCN(c2cccc(-c3nc(-n4nc(C)cc4C)nc(N)c3C#N)n2)C1

Ki (Adenosine receptor A2a [15]): 0.22 nM
SMILES: COC[C@H]1CCCN1c1cc(Nc2ccccn2)nc(-n2cccn2)n1

Ki (Adenosine receptor A1 [20]): > 250 nM
Ki (Adenosine receptor A2a [21]): 10 nM
SMILES: Nc1nc(NC[C@H]2CCCN2Cc2ccnc(Cl)c2)nc2nc(-c3ccco3)nn12

EC50 [1]: 1.26 nM
EC50 [2]: 2.96 nM
SMILES: CCCN(CCN1CCN(C(=O)c2cc3ccccc3[nH]2)CC1)[C@H]1CCc2nc(N)sc2C1

IC50 [13]: 5.1 nM
SMILES: C/C(=N\NC(=O)c1cc(-c2ccccc2)on1)c1ccc(C)cc1

Ki (Adenosine receptor A1 [20]): 6.34 nM
Ki (Adenosine receptor A2a [21]): 9.54 nM
SMILES: Cc1ccc(-c2cc(-c3cccc(C(=O)N4CCCCC4)c3)nc(N)n2)o1

EC50 (D(3) dopamine receptor [22]): 0.87 nM
EC50 (D(2) dopamine receptor [23]): 0.23 nM
SMILES: CCCN(CCN1CCN(c2ccc3c(c2)[nH]c2ccccc23)CC1)[C@H]1CCc2c(O)cccc2C1
